Experimental findings from patent US6306432A, “High and low load formulations of IGF-I in multivesicular liposomes” (Chiron Corporation, priority 1997, dated 2001) are described below.

Where a SMILES comes first, the peptide text is derived from it.

A short description of data set [1]: Osmolarity of sucrose and glycylglycine solutions and of the first aqueous component. Format: physicochemical. From the text: Drug loading in MVLs is modulated by controlling the osmolarity of the first aqueous component used during manufacture of the MVLs. Osmolarity is the sum of the molar concentrations of solutes present in an aqueous solution. If the solute is present in a dissociated, ionized or aggregated form, osmolarity is defined as the sum of the molar concentrations of the dissociated, ionized or aggregated forms. The solutes that contribute to the osmolarity of an aqueous solution include the IGF-I, and osmotic excipients that are to be encapsulated during manufacture of MVLs. The contribution to the osmolarity of a solution made by any solute in the solution is approximately equivalent to the weight concentration of the solute in the solution (e.g., mg/mL) divided by its molecular weight. Thus, as a general principle, for a given weight concentration, the larger the molecular weight of a solute, the smaller the osmolarity of the solute, and the smaller the contribution of that solute to the overall osmolarity of the solution. It is also possible to reduce the osmolarity of the first aqueous component by reducing the concentration of the active agent. This method will lead to a lower loading of IGF-I if the concentration of other solutes in the first aqueous component remain constant.

A short description of data set [2]: Solubility of IGF-I in aqueous solution versus pH. In kind it is physicochemical. As to the method:
Applicants have also discovered a second parameter that must be taken into consideration in determining the composition of the first aqueous component during manufacture of the IGF-I formulations of this invention. The concentration of IGF-I in solution in the first aqueous component during manufacture is directly proportional to the amount of IGF-I that can be loaded in any give formulation. […] Further studies have shown that up to about 300 mg/mL of IGF-I can be solubilized at a pH below 5. Thus, to obtain and maintain sufficient IGF-I in solution in the first aqueous solution, a buffer or acid is also added to it during manufacture to assure a high enough concentration of dissolved IGF-I in the first aqueous component to obtain a final MVL product containing the desired loading of the drug. For the low load formulations, the pH of the first aqueous component is generally adjusted to a value within the range of 1 to about 5, while for high load formulations the pH range is between 2 and 4.8.

Data set [3] can be described thus: In vivo pharmacokinetics, serum IGF-I after subcutaneous injection in rats, low load versus free IGF-I. On the set-up: species or system rat. Particulars: 20 mg/kg s.c.
Method: In-vivo studies. The pharmacokinetic behavior of a low load MVL formulation containing IGF-I was compared to that of unencapsulated IGF-I after subcutaneous injections (lower back) in rats. 20 mg/kg doses of either free IGF-I or a MVL formulation or IGF-I prepared from a stock solution of 5 mg/ml IGF-I was injected into each rat, with 3 rats per group. Sera were collected at various times up to 8 days post injection, and assayed for IGF-I using an IGF-I ELISA kits (DSL-10-5600) (Diagnostic Systems Laboratories (DSL), Webster, Tex.) according to the manufacturer's instructions. The pharmacokinetic parameters were calculated using the WinNonlin program (Scientific Consulting Inc.) and a non-compartmental model.
A further data set concerns MG-63 cells. Description: Mitogenic bioassay, MG-63 cells, MTT stain. Format: cell-based, human. The note with it: standard control in mitogenic assay.

For the compound `NCC(=O)NCC(=O)O` [Glycylglycine, glycylglycine] (H-Gly-Gly-OH), the Osmolarity was determined as 38 mOsm in data set [1] (0.5 w/v %); 76 mOsm in data set [1] (1.0 w/v %); 114 mOsm in data set [1] (1.5 w/v %); 152 mOsm in data set [1] (2.0 w/v %); 189 mOsm in data set [1] (2.5 w/v %); 227 mOsm in data set [1] (3.0 w/v %). Moreover, the Osmolarity is given as 303 mOsm in data set [1] (4.0 w/v %); 379 mOsm in data set [1] (5.0 w/v %); 455 mOsm in data set [1] (6.0 w/v %); 530 mOsm in data set [1] (7.0 w/v %); 606 mOsm in data set [1] (8.0 w/v %).

For the compound `OC[C@H]1O[C@@](CO)(O[C@H]2O[C@H](CO)[C@@H](O)[C@H](O)[C@H]2O)[C@@H](O)[C@@H]1O` [sucrose], the Osmolarity in data set [1] (0.5 w/v %) is reported as 15 mOsm; in data set [1] (1.0 w/v %), 30 mOsm; in data set [1] (1.5 w/v %), 45 mOsm; in data set [1] (2.0 w/v %), 60 mOsm; in data set [1] (2.5 w/v %), 76 mOsm; in data set [1] (3.0 w/v %), 91 mOsm. Moreover, the Osmolarity is 123 mOsm in data set [1] (4.0 w/v %); 156 mOsm in data set [1] (5.0 w/v %); 190 mOsm in data set [1] (6.0 w/v %); 225 mOsm in data set [1] (7.0 w/v %); 261 mOsm in data set [1] (8.0 w/v %).

On to Insulin-like Growth Factor I [IGF-I], for which the “Solubility of IGF-I in aqueous solution” value in data set [2] (at a pH of about 5) is “drops precipitously at a pH of about 5”. Besides, the IGF-I solubilized result in data set [2] (pH below 5) is “up to 300 mg/mL”. The “Time after which free IGF-I is cleared” value in data set [3] is on record as “about 1 day”. The figures for the “Bioactivity of standard rhIGF-I” value in the data set with MG-63 cells (listed as recombinant human IGF-I) and with MG-63 cells (listed as rhIGF-I) were 1.3×10^3 international units (IU)/mL and ~ 1.3×10^3 international units (IU)/mL, respectively.
